Source: patent publication US12624044B2, “SMARCA degraders and uses thereof” (Kymera Therapeutics, Inc., priority 2019, dated 2026)

Molecular target: SMARCA2 (Homo sapiens, UniProt P51531)
Experiment: MSD SMARCA2 degradation in NCI-H1299 cell line (24 h)
Assay type: cell-based
Design: HC: NCI-H1299 cells treated with DMSO; host or cells: NCI-H1299
Conditions: for Dmax: NCI-H1299, NCI-H1299 cells; for DC50: NCI-H1299 cells, read-out: SMARCA2 MSD H1299 degradation 24 h: External Abs-DC50
Summary of the method: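 SMARCA2 measured by MSD electrochemiluminescence (primary 0.3 ug/ml, secondary 1 ug/ml) on lysates from NCI-H1299 cells exposed to compounds for 24 h across nine 3-fold dilutions. Signal scaled from A2780 cells (no SMARCA2) to DMSO-treated H1299 controls, and maximal degradation after 24 h reported in letter categories.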

SMARCA2, sequence (P51531 whole entry): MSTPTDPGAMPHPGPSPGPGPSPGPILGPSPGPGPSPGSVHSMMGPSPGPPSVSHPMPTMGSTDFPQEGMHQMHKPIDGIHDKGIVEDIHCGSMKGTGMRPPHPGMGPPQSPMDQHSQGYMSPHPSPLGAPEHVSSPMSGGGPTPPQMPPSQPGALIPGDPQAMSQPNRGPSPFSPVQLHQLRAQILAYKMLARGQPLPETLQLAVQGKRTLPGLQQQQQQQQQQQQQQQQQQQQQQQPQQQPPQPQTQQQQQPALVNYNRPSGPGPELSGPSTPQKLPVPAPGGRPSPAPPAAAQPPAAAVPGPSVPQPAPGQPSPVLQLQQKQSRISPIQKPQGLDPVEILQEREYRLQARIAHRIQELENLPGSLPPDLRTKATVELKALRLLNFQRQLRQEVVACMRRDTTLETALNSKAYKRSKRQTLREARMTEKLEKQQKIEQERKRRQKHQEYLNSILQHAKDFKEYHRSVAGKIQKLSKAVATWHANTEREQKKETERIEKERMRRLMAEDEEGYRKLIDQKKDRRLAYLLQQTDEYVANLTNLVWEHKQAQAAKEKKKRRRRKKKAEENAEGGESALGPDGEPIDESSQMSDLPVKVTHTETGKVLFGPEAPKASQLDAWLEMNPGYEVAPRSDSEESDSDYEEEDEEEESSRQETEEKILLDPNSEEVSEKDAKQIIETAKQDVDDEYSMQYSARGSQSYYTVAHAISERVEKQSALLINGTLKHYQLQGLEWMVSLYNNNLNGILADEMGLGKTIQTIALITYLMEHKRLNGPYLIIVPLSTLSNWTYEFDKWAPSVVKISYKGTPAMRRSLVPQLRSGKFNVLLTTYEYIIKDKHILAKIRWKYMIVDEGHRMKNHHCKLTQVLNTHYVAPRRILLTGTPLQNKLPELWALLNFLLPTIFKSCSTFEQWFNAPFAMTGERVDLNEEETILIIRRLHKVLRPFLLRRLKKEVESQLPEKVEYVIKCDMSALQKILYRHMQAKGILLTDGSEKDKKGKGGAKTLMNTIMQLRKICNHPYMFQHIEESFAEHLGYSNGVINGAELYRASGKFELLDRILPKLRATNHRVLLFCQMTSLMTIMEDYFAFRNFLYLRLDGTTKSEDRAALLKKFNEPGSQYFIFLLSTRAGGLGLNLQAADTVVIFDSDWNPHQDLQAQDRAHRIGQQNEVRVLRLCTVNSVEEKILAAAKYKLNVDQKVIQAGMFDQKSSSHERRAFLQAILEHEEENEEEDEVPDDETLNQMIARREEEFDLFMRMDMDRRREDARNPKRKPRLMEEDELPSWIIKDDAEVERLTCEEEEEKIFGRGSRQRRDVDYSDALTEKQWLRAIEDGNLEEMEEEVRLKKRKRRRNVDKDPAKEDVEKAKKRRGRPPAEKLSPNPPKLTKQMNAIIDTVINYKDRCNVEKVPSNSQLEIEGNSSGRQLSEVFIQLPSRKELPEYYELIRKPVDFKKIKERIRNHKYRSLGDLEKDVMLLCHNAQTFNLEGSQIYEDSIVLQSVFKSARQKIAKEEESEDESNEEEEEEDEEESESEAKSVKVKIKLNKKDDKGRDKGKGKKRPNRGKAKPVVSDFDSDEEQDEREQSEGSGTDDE

Dmax [%]	DC50 [nM]	Compound
< 50	> 1000	Cn1c(=O)n(C2CCC(=O)NC2=O)c2ccc(CCCCCCCCOc3cccc(CN4CCN(c5cc(-c6ccccc6O)nnc5N)CC4)c3)cc21 (stereo not shown) [I-142]
> 90	501 to 1000	O=C1CCC(N2C(=O)c3cccc(OCCCCc4cn(Cc5cccc(N6C[C@H]7C[C@@H]6CN7/C=C/C(=O)c6ccccc6O)n5)nn4)c3C2=O)C(=O)N1 (stereo partly shown) [I-37]
50 to 70	< 100	CN(Cc1ccc(N2CCN(c3cc(-c4ccccc4O)nnc3N)CC2)cc1)CC1CCN(c2ccc3c(c2)n(C)c(=O)n3C2CCC(=O)NC2=O)CC1 (stereo not shown) [I-114]
< 50	> 1000	CN(CCCc1ccc2c(c1)n(C)c(=O)n2C1CCC(=O)NC1=O)Cc1ccc(N2CCN(c3cc(-c4ccccc4O)nnc3N)CC2)cc1 (stereo not shown) [I-159, 3-(5-(3-((4-(4-(3-amino-6-(2-hydroxyphenyl)pyridazin-4-yl)piperazin-1-yl)benzyl)(methyl)amino)propyl)-3-methyl-2-oxo-2,3-dihydro-1H-benzo[d]imidazol-1-yl)piperidine-2,6-dione]
50 to 70	> 1000	Cn1c(=O)n(C2CCC(=O)NC2=O)c2ccc(CCCCCCc3cn(Cc4cccc(N5C[C@H]6C[C@@H]5CN6/C=C/C(=O)c5ccccc5O)n4)nn3)cc21 (stereo partly drawn) [I-46, 3-(5-(6-(1-((6-((1R,4R)-5-((E)-3-(2-hydroxyphenyl)-3-oxoprop-1-en-1-yl)-2,5-diazabicyclo[2.2.1]heptan-2-yl)pyridin-2-yl)methyl)-1H-1,2,3-triazol-4-yl)hexyl)-3-methyl-2-oxo-2,3-dihydro-1H-benzo[d]imidazol-1-yl)piperidine-2,6-dione]
< 50	> 1000	Cn1c(=O)n(C2CCC(=O)NC2=O)c2ccc(CCCCCCCc3cn(Cc4cccc(N5C[C@H]6C[C@@H]5CN6/C=C/C(=O)c5ccccc5O)n4)nn3)cc21 (stereo partly shown) [I-47]
–	> 1000	Cn1c(=O)n(C2CCC(=O)NC2=O)c2ccc(CCCOCCOCCOCCOCCNC(=O)CCCCCCCCOc3ccc(N4C[C@H]5C[C@@H]4CN5/C=C/C(=O)c4ccccc4O)nc3)cc21 (stereo partly shown) [I-5]
< 50	> 1000	Cn1c(=O)n(C2CCC(=O)NC2=O)c2cccc(CCCCCCCCN3CCN(c4cc(-c5ccccc5O)nnc4N)CC3)c21 (stereo not shown) [I-185]
< 50	> 1000	Cn1c(=O)n(C2CCC(=O)NC2=O)c2ccc(CNCCCCCc3cn(Cc4cccc(N5C[C@H]6C[C@@H]5CN6/C=C/C(=O)c5ccccc5O)n4)nn3)cc21 (stereo partly shown) [I-76]
> 90	> 1000	Cc1ncsc1-c1ccc(CNC(=O)[C@@H]2C[C@@H](O)CN2C(=O)[C@@H](NC(=O)CCCCCCCN2CCC(Cn3cc(-c4cc(-c5ccccc5O)nnc4N)cn3)CC2)C(C)(C)C)cc1 [I-217]
< 50	> 1000	Cn1c(=O)n(C2CCC(=O)NC2=O)c2cccc(CCCNCc3cn(Cc4cccc(N5C[C@H]6C[C@@H]5CN6/C=C/C(=O)c5ccccc5O)n4)nn3)c21 (stereo partly shown) [I-28]
> 90	< 100	Cn1c(=O)n(C2CCC(=O)NC2=O)c2cccc(CCCCCCCN3CCC(Cn4cc(-c5cc(-c6ccccc6O)nnc5N)cn4)CC3)c21 (stereo not shown) [I-149, 3-[4-[7-[4-[[4-[3-amino-6-(2-hydroxyphenyl)pyridazin-4-yl]pyrazol-1-yl]methyl]-1-piperidyl]heptyl]-3-methyl-2-oxo-benzimidazol-1-yl]piperidine-2,6-dione]
< 50	> 1000	Cn1c(=O)n(C2CCC(=O)NC2=O)c2cccc(C#CCCCCCc3cn(Cc4cccc(N5C[C@H]6C[C@@H]5CN6/C=C/C(=O)c5ccccc5O)n4)nn3)c21 (stereo partly shown) [I-67]
< 50	> 1000	Cc1ncsc1-c1ccc(CNC(=O)[C@@H]2C[C@@H](O)CN2C(=O)[C@@H](NC(=O)CCCCCN2CCC(Cn3cc(-c4cc(-c5ccccc5O)nnc4N)cn3)CC2)C(C)(C)C)cc1 [I-215, (2S,4R)-1-((S)-2-(6-(4-((4-(3-amino-6-(2-hydroxyphenyl)pyridazin-4-yl)-1H-pyrazol-1-yl)methyl)piperidin-1-yl)hexanamido)-3,3-dimethylbutanoyl)-4-hydroxy-N-(4-(4-methylthiazol-5-yl)benzyl)pyrrolidine-2-carboxamide]
–	> 1000	Cn1c(=O)n(C2CCC(=O)NC2=O)c2ccc(CCCOCCOCCNC(=O)CCCCCCCCOc3ccc(N4C[C@H]5C[C@@H]4CN5/C=C/C(=O)c4ccccc4O)nc3)cc21 (stereo partly shown) [I-8]
–	> 1000	Cn1c(=O)n(C2CCC(=O)NC2=O)c2ccc(CCCOCCOCCNC(=O)CCCCCCCCOc3ccnc(N4C[C@H]5C[C@@H]4CN5/C=C/C(=O)c4ccccc4O)c3)cc21 (stereo partly shown) [I-24]

Dmax [%]	DC50 [nM]	Compound
70 to 90	100 to 500	Cn1c(=O)n(C2CCC(=O)NC2=O)c2ccc(CN3CCC(OCCCN4CCN(Cc5ccc(-c6cc(-c7ccccc7O)nnc6N)cc5)CC4)CC3)cc21 (stereo not shown) [I-158]
< 50	> 1000	O=C1CCC(n2c(=O)n(CCCCCc3cn(Cc4cccc(N5C[C@H]6C[C@@H]5CN6/C=C/C(=O)c5ccccc5O)n4)nn3)c3ccccc32)C(=O)N1 (stereo partly drawn) [I-55, 3-[3-[5-[1-[[6-[(1R,4R)-5-[(E)-3-(2-hydroxyphenyl)-3-oxo-prop-1-enyl]-2,5-diazabicyclo[2.2.1]heptan-2-yl]-2-pyridyl]methyl]triazol-4-yl]pentyl]-2-oxo-benzimidazol-1-yl]piperidine-2,6-dione]
50 to 70	> 1000	Cn1c(=O)n(C2CCC(=O)NC2=O)c2cccc(CCCCCCCOc3ccc(CN4CCN(c5cc(-c6ccccc6O)nnc5N)CC4)cc3)c21 (stereo not shown) [I-94]
–	> 1000	Cn1c(=O)n(C2CCC(=O)NC2=O)c2ccc(CCCOCCOCCOc3cccc(N4C[C@H]5C[C@@H]4CN5/C=C/C(=O)c4ccccc4O)n3)cc21 (stereo partly shown) [I-33]
< 50	> 1000	Cn1c(=O)n(C2CCC(=O)NC2=O)c2ccc(CCCCCCCCCCCOc3cccc(CN4CCN(c5cc(-c6ccccc6O)nnc5N)CC4)c3)cc21 (stereo not shown) [I-145]
–	> 1000	Cc1ncsc1-c1ccc(CNC(=O)[C@@H]2C[C@@H](O)CN2C(=O)[C@@H](NC(=O)COCCOCCOCCNC(=O)c2ccc(C(C)n3cc(-c4cc(-c5ccccc5O)nnc4N)cn3)cc2)C(C)(C)C)cc1 (stereo partly shown) [I-224]
–	> 1000	CN[C@@H](C)C(=O)N[C@H](C(=O)N1Cc2cc(OCCOCCOCCOCCOCCOCCNC(=O)c3ccc(C(C)n4cc(-c5cc(-c6ccccc6O)nnc5N)cn4)cc3)ccc2C[C@H]1C(=O)N[C@@H]1CCCc2ccccc21)C(C)(C)C (stereo partly shown) [I-206]
–	> 1000	Cc1ncsc1-c1ccc(CNC(=O)[C@@H]2C[C@@H](O)CN2C(=O)[C@@H](NC(=O)COCCOCCOCCOCCOCCNC(=O)c2ccc(C(C)n3cc(-c4cc(-c5ccccc5O)nnc4N)cn3)cc2)C(C)(C)C)cc1 (stereo partly shown) [I-226]
50 to 70	> 1000	Cn1c(=O)n(C2CCC(=O)NC2=O)c2cccc(CCCCCCCN3CCCC(n4cc(-c5cc(-c6ccccc6O)nnc5N)cn4)C3)c21 (stereo not shown) [I-171]
< 50	> 1000	COc1cc(C(=O)NCCCCCCCNCc2ccc(N3CCN(c4cc(-c5ccccc5O)nnc4N)CC3)cc2)ccc1NC(=O)[C@@H]1N[C@@H](CC(C)(C)C)[C@](C#N)(c2ccc(Cl)cc2F)[C@H]1c1cccc(Cl)c1F [I-236]
70 to 90	> 1000	Cn1c(=O)n(C2CCC(=O)NC2=O)c2ccc(CN3CCN(CCO[C@H]4C[C@H](NCc5ccc(N6CCN(c7cc(-c8ccccc8O)nnc7N)CC6)cc5)C4)CC3)cc21 (stereo partly shown) [I-131]
–	> 1000	O=C1CCC(N2C(=O)c3cccc(OCc4cn(Cc5cccc(N6C[C@H]7C[C@@H]6CN7/C=C/C(=O)c6ccccc6O)n5)nn4)c3C2=O)C(=O)N1 (stereo partly shown) [I-34]
–	> 1000	Cc1ncsc1-c1ccc(CNC(=O)[C@@H]2C[C@@H](O)CN2C(=O)[C@@H](NC(=O)COCCOCCOCCOCCNC(=O)c2ccc(C(C)n3cc(-c4cc(-c5ccccc5O)nnc4N)cn3)cc2)C(C)(C)C)cc1 (stereo partly shown) [I-227]
–	> 1000	Cc1ncsc1-c1ccc(CNC(=O)[C@@H]2C[C@@H](O)CN2C(=O)[C@@H](NC(=O)COCCOCCOCCOCCNC(=O)CCCCCCCCOc2ccnc(N3C[C@H]4C[C@@H]3CN4/C=C/C(=O)c3ccccc3O)c2)C(C)(C)C)cc1 [I-223]
< 50	> 1000	O=C1CCC(n2c(=O)n(CCCCCCc3cn(Cc4cccc(N5C[C@H]6C[C@@H]5CN6/C=C/C(=O)c5ccccc5O)n4)nn3)c3ccccc32)C(=O)N1 (stereo partly shown) [I-56]
< 50	> 1000	COc1cc(C(=O)NCCCN2CCN(Cc3ccc(-c4cc(-c5ccccc5O)nnc4N)cc3)CC2)ccc1NC(=O)[C@@H]1N[C@@H](CC(C)(C)C)[C@](C#N)(c2ccc(Cl)cc2F)[C@H]1c1cccc(Cl)c1F [I-232, (2R,3S,4R,5S)—N-(4-((3-(4-(4-(3-amino-6-(2-hydroxyphenyl)pyridazin-4-yl)benzyl)piperazin-1-yl)propyl)carbamoyl)-2-methoxyphenyl)-3-(3-chloro-2-fluorophenyl)-4-(4-chloro-2-fluorophenyl)-4-cyano-5-neopentylpyrrolidine-2-carboxamide]

Compound	Dmax [%]	DC50 [nM]
Cn1c(=O)n(C2CCC(=O)NC2=O)c2ccc(CCCCCCCCc3cnc(N4C5CCC4CN(c4cc(-c6ccccc6O)nnc4N)C5)nc3)cc21 (stereo not shown) [I-89, 3-[5-[8-[2-[3-[3-amino-6-(2-hydroxyphenyl)pyridazin-4-yl]-3,8-diazabicyclo [3.2.1]octan-8-yl]pyrimidin-5-yl]octyl]-3-methyl-2-oxo-benzimidazol-1-yl]piperidine-2,6-dione]	> 90	< 100
Cc1ncsc1-c1ccc(CNC(=O)[C@@H]2C[C@@H](O)CN2C(=O)[C@@H](NC(=O)CCCCCN2CCC(c3cnc(N4C5CCC4CN(c4cc(-c6ccccc6O)nnc4N)C5)nc3)CC2)C(C)(C)C)cc1 [I-210, (2S,4R)-1-[(2S)-2-[6-[4-[2-[3-[3-amino-6-(2-hydroxyphenyl)pyridazin-4-yl]-3,8-diazabicyclo[3.2.1]octan-8-yl]pyrimidin-5-yl]-1-piperidyl]hexanoylamino]-3,3-dimethyl-butanoyl]-4-hydroxy-N-[[4-(4-methylthiazol-5-yl)phenyl]methyl]pyrrolidine-2-carboxamide]	> 90	501 to 1000
